Measured values taken from paper PMC9207808 (ACS Chemical Biology, 2022).
Values joined by “and” are separate entries in the source; they are usually repeats but may differ in a detail not shown here. Equal values may be shown once. Read-outs that look alike come from different tables or passages of the source. Residues, ends and D or L forms follow the SMILES beside them. No end group written: not given here.

Experiments:
DocSTm [1] = assay: Differential scanning fluorimetry (thermal stabilisation of Doc); format: binding, S. Typhimurium; details: for melting temperature shift ΔTm: DSF, DocSTm 5 μM, analyte 50 μM, Tm with analyte minus Tm of free DocSTm (42.9 ± 0.9 °C), SYPRO Orange, 20 mM K2HPO4, 50 mM (NH4)2SO4, pH 8.0, triplicate; for Average Tm / Tm: DocSTm 5 µM + 50 µM binder; for Average Tm: average of 3 replicates
Outline: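 Tm values come from fitting the sigmoidal melt region to a Boltzmann function. Doc (5 μM final) was ramped 25–95 °C with SYPRO Orange (3× final) in pH 8.0 buffer of 20 mM K2HPO4 and 50 mM (NH4)2SO4; each condition in triplicate.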

DocSTm [2] = assay: Surface plasmon resonance binding to immobilised Doc; parameters: species or system S. Typhimurium; details: for koff × 10^-6 / kon × 10^6: 1:1 kinetic fit, mean ± SD of at least 3 replicates; for kon × 10^6: single-cycle kinetics (multicycle for PhdSTm1-73); for Half-life of the complex: t1/2 = ln2 / koff; for affinity to DocSTm greater than that of peptides 7, 10 and 14: SPR Kd ratio; for fold decrease in affinity (given as decrease/loss in Kd) compared with peptide 1: SPR Kd relative to wild-type peptide 1
Outline: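 Binding constants are means ± SD of at least three replicates: steady-state Kd directly, or Kd calculated from kinetic kon and koff. Sensorgrams were double-referenced and fitted 1:1 after 80 s analyte injections (30 μL/min), either multicycle or single-cycle, over NTA-immobilised Doc. Running buffer was HEPES/500 mM NaCl/EDTA/Tween pH 8.0 at 22 °C.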

DocSTm [3] = assay: Dot blot phosphorylation assay (EF-Tu phosphorylation by Doc); format: biochemical, S. Typhimurium; details: α-pThr, DocSTm 1 μM, EF-TuSTm 3 μM, ATP 1 mM, inhibitor 10 μM to 5 nM (3-fold dilutions), 16 h at RT
Outline: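 Doc-mediated phosphorylation of EF-Tu was run for 16 h at RT, then the samples were spotted on nitrocellulose. Phospho-EF-Tu was detected with a rabbit monoclonal anti-phosphothreonine antibody and an HRP anti-rabbit secondary, read by chemiluminescence.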

[4] = system: S. Typhimurium (14028) Δphd-doc::Km strains coexpressing DocSTm; assay: Growth rescue experiment in S. Typhimurium; format: cell-based; details: coexpression of DocSTm (pBAD33, arabinose) and Phd construct (pCA24N, basal expression); OD600 over time, M9 minimal medium; average of three independent experiments
Protocol: The cotransformations above were also performed with an empty pBAD33 plasmid, as a control for the absence of DocSTm expression.
For the growth rescue experiment, overnight (1% tryptone, 0.5% yeast extract, 0.5% NaCl, 1% glucose, 100 μg/mL of carbenicillin, and 34 μg/mL of chloramphenicol) cultures of the generated S. Typhimurium strains were diluted to an OD600 of approximately 0.006 into fresh M9 minimal medium supplemented with 0.5% or 1% arabinose, 0.4% glycerol, 0.4% casamino acids, 100 μg/mL of carbenicillin, and 34 μg/mL of chloramphenicol. Cell growth at a given time was monitored at OD600 with a Genesys 140 Visible Spectrophotometer (Thermo Scientific).

[5] = molecular target: Doc1-122–His6 (DocSTm toxin) (Salmonella typhimurium); assay: SPR; Biacore S200; Doc-His6 captured on a Series S NTA chip (200-400 RU); peptide as analyte, single-cycle kinetics, six concentrations (3-fold dilutions), 30 uL/min; 22 C; 10 mM HEPES, 500 mM NaCl, 50 uM EDTA, 0.005% TWEEN 20, pH 8.0; kinetic 1:1 fit
[6] = molecular target: Doc1-122–His6 (DocSTm toxin) (Salmonella typhimurium); assay: as above; remark: listed apart in the source
[7] = molecular target: Doc toxin of Salmonella enterica serovar Typhimurium (DocSTm) (Salmonella enterica serovar Typhimurium); assay: SPR; DocSTm immobilised on a Series S NTA chip (150 nM, 200-400 RU); analytes in single-cycle kinetics, typically six concentrations, kinetic 1:1 fit; 22 °C; 10 mM HEPES, 500 mM NaCl, 50 μM EDTA, 0.005% TWEEN 20, pH 8.0
[8] = SPR, kinetic fit, KD calculated from mean koff and kon, SD propagated, 22 °C, pH 8.0

| Molecule | melting temperature shift ΔTm (DocSTm [1]) | Average Tm (DocSTm [1]) | Tm (DocSTm [1]; replicate 1) | Tm (DocSTm [1]; replicate 2) | Tm (DocSTm [1]; replicate 3) | Kd (DocSTm [2]; SPR kinetic fit, replicate 1) | Kd (DocSTm [2]; SPR kinetic fit, replicate 2) | Kd (DocSTm [2]; SPR kinetic fit, replicate 3) | koff × 10^-6 (DocSTm [2]; SPR, 22 °C, pH 8.0) | kon × 10^6 (DocSTm [2]; SPR, 22 °C, pH 8.0) | Kd (DocSTm [2]; [8]) | Half-life of the complex (DocSTm [2]) | inhibition of EF-TuSTm phosphorylation by DocSTm (in words) (DocSTm [3]) | rescue of Salmonella growth from DocSTm-induced growth inhibition (in words) [4] | affinity to DocSTm greater than that of peptides 7, 10 and 14 (DocSTm [2]) | fold decrease in affinity (given as decrease/loss in Kd) compared with peptide 1 (DocSTm [2]) | other results |
| --- | --- | --- | --- | --- | --- | --- | --- | --- | --- | --- | --- | --- | --- | --- | --- | --- | --- |
| CC[C@H](C)[C@H](NC(=O)[C@H](C)NC(=O)[C@H](C)NC(=O)[C@H](Cc1ccccc1)NC(=O)[C@H](CCC(=O)O)NC(=O)[C@H](C)NC(=O)[C@H](CC(=O)O)NC(=O)[C@H](CCSC)NC(=O)[C@H](Cc1c[nH]c2ccccc12)NC(C)=O)C(=O)N[C@@H](CCSC)C(=O)N[C@@H](C)C(=O)N[C@H](C(=O)N[C@@H](Cc1c[nH]cn1)C(=O)NCC(=O)N[C@@H](CC(N)=O)C(=O)N[C@@H](CCC(=O)O)C(=O)N[C@@H](CC(C)C)C(=O)N[C@@H](CCCNC(=N)N)C(=O)N[C@@H](CCC(=O)O)C(=O)N[C@@H](CC(C)C)C(=O)N[C@@H](C)C(=O)N[C@@H](CC(=O)O)C(=O)N[C@@H](CCCCN)C(=O)O)C(C)C [peptide 4] (Ac-WMDAEFAAIMAVHGNELRELADK-OH; C-terminus assumed) | 26.2 ± 0.9 °C | 69.1 ± 0.2 °C | 69.0 °C | 69.3 °C | 69.1 °C | 0.0128 nM | 0.0166 nM | 0.0101 nM | 62 ± 17 ×10^-6 s-1 | 4.733 ± 0.155 ×10^6 M-1 s-1 | 0.013 nM | 186 ± 48 min | inhibited DocSTm at similar concentrations to peptide 1 | restored bacterial growth following similar kinetics as the wild-type sequence |  |  | improvement in koff compared with 1 (DocSTm [2]; SPR): ~1.5 fold; improvement in kon compared with 1 (DocSTm [2]; SPR): ~4 fold; gain of affinity compared to peptide 1 (DocSTm [2]; SPR Kd relative to peptide 1): greater than 5 fold |
| CC[C@H](C)[C@H](NC(=O)[C@H](C)NC(=O)[C@H](C)NC(=O)[C@H](C)NC(=O)[C@H](CCC(=O)O)NC(=O)[C@H](CC(=O)O)NC(=O)[C@H](CC(=O)O)NC(=O)[C@H](CCSC)NC(=O)[C@H](Cc1c[nH]c2ccccc12)NC(C)=O)C(=O)N[C@@H](CCSC)C(=O)N[C@@H](C)C(=O)N[C@H](C(=O)N[C@@H](Cc1c[nH]cn1)C(=O)NCC(=O)N[C@@H](CC(N)=O)C(=O)N[C@@H](CCC(=O)O)C(=O)N[C@@H](CC(C)C)C(=O)N[C@@H](CCCNC(=N)N)C(=O)N[C@@H](CCC(=O)O)C(=O)N[C@@H](CC(C)C)C(=O)N[C@@H](C)C(=O)N[C@@H](CC(=O)O)C(=O)N[C@@H](CCCCN)C(=O)O)C(C)C [peptide 6] (Ac-WMDDEAAAIMAVHGNELRELADK-OH; C-terminus assumed) | 21.1 ± 1.0 °C | 64.0 ± 0.5 °C | 64.5 °C | 64.1 °C | 63.5 °C | 1 nM | 0.919 nM | 0.745 nM | 843 ± 231 ×10^-6 s-1 | 0.989 ± 0.434 ×10^6 M-1 s-1 | 0.852 nM | 13.8 ± 3.6 min | among the poorest inhibitors of EF-TuSTm phosphorylation | not able to counteract DocSTm-induced growth inhibition of Salmonella | at least 12 fold | 8- to 30 fold |  |
| CC[C@H](C)[C@H](NC(=O)[C@H](C)NC(=O)[C@H](C)NC(=O)[C@H](Cc1ccccc1)NC(=O)[C@H](CCC(=O)O)NC(=O)[C@H](CC(=O)O)NC(=O)[C@H](CC(=O)O)NC(=O)[C@H](CCSC)NC(=O)[C@H](Cc1c[nH]c2ccccc12)NC(C)=O)C(=O)N[C@@H](CCSC)C(=O)N[C@@H](C)C(=O)N[C@H](C(=O)N[C@@H](Cc1c[nH]cn1)C(=O)NCC(=O)N[C@@H](CC(N)=O)C(=O)N[C@@H](CCC(=O)O)C(=O)N[C@@H](CC(C)C)C(=O)N[C@@H](CCCNC(=N)N)C(=O)N[C@@H](CCC(=O)O)C(=O)N[C@@H](C)C(=O)N[C@@H](C)C(=O)N[C@@H](CC(=O)O)C(=O)N[C@@H](CCCCN)C(=O)O)C(C)C [peptide 17] (Ac-WMDDEFAAIMAVHGNELREAADK-OH; C-terminus assumed) | 15.2 ± 1.0 °C | 58.0 ± 0.4 °C | 58.5 °C | 57.9 °C | 57.8 °C | 2.1 nM | 1.98 nM | 1.02 nM | 5967 ± 404 ×10^-6 s-1 | 3.837 ± 1.398 ×10^6 M-1 s-1 | 1.55 ± 0.58 nM | 1.92 ± 0.12 min | among the poorest inhibitors of EF-TuSTm phosphorylation | not able to counteract DocSTm-induced growth inhibition of Salmonella | at least 12 fold | 8- to 30 fold |  |
| peptide 4 (PhdSTm52-73-D54A) |  |  |  |  |  |  |  |  |  |  |  |  |  |  |  |  | koff [5]: 6.2e-05 s⁻¹; kon [5]: 4.73e+06 M⁻¹ s⁻¹; Kd [6]: 0.0128 nM and 0.0166 nM and 0.0101 nM; koff [6]: 8.12e-05 s⁻¹ and 4.76e-05 s⁻¹ and 5.84e-05 s⁻¹; kon [6]: 4.89e+06 M⁻¹ s⁻¹ and 4.73e+06 M⁻¹ s⁻¹ and 4.58e+06 M⁻¹ s⁻¹ |
| Ac-WMADEFAAIMAVHGNELRELADK [peptide 3 (Phd 52-73 D53A)] |  |  |  |  |  |  |  |  |  |  |  |  |  |  |  |  | Kd [7]: 0.013 nM; fold improvement of koff against peptide 1 [7]: 1.5 fold; fold improvement of kon against peptide 1 [7]: 4 fold |
